Source: the NIST ThermoML archive (doi:10.1021/je700732u)
Numbers after ± are expanded uncertainties.

Assays:
[1] = mn = molality of the nth substance listed, in mol/kg; conditions: 298.15 K, 101 kPa, Liquid
[2] = cn = amount concentration of the nth substance listed, in mol/dm3; conditions: 298.15 K, 101 kPa, Liquid

OC[C@H]1O[C@@](CO)(O[C@H]2O[C@H](CO)[C@@H](O)[C@H](O)[C@H]2O)[C@@H](O)[C@@H]1O [D-sucrose] + O
[1]
Conditions	mass density [kg/m3]	viscosity [mPa·s]
m1 = 0.2	1022.17 ± 0.33	1.064 ± 0.026
m1 = 0.4	1045.26 ± 0.41	1.277 ± 0.031
m1 = 0.6	1066.44 ± 0.48	1.533 ± 0.037
m1 = 0.8	1086.04 ± 0.55	1.843 ± 0.044
m1 = 1	1104.2 ± 0.61	2.241 ± 0.053
m1 = 1.2	1121.03 ± 0.68	2.638 ± 0.062

[Cl][Cu][Cl] [copper chloride] + O
[1]
Conditions	mass density [kg/m3]
m1 = 0.0498	1003.12 ± 0.27
m1 = 0.09962	1009.1 ± 0.29
m1 = 0.1992	1020.92 ± 0.33
m1 = 0.2988	1032.58 ± 0.37
m1 = 0.498	1055.47 ± 0.46

O=S(=O)([O-])[O-].[Cu+2] [copper sulfate] + O
Conditions	mass density [kg/m3]	viscosity [mPa·s]
[1], m1 = 0.05	1005.22 ± 0.18	–
[1], m1 = 0.1	1013.29 ± 0.2	–
[1], m1 = 0.2	1029.16 ± 0.26	–
[1], m1 = 0.3	1044.87 ± 0.31	–
[1], m1 = 0.4	1060.4 ± 0.37	–
[1], m1 = 0.5	1075.78 ± 0.43	–
[2], c1 = 0.04986	–	0.9222 ± 0.023
[2], c1 = 0.09974	–	0.9516 ± 0.024
[2], c1 = 0.1995	–	1.013 ± 0.025
[2], c1 = 0.2991	–	1.083 ± 0.027
[2], c1 = 0.3987	–	1.147 ± 0.028
[2], c1 = 0.4981	–	1.223 ± 0.03

[Cl-].[Cl-].[Mg+2] [magnesium chloride] + O
[1]
Conditions	mass density [kg/m3]
m1 = 0.09998	1004.88 ± 0.22
m1 = 0.2001	1012.54 ± 0.24
m1 = 0.4002	1027.51 ± 0.28
m1 = 0.5	1034.83 ± 0.3

O=S(=O)([O-])[O-].[Mg+2] [magnesium sulfate] + O
Conditions	mass density [kg/m3]	viscosity [mPa·s]
[1], m1 = 0.05	1003.14 ± 0.18	–
[1], m1 = 0.1	1009.13 ± 0.19	–
[1], m1 = 0.2	1020.83 ± 0.23	–
[1], m1 = 0.3	1032.43 ± 0.27	–
[1], m1 = 0.4	1043.79 ± 0.31	–
[1], m1 = 0.5	1055.11 ± 0.35	–
[2], c1 = 0.04787	–	0.9216 ± 0.023
[2], c1 = 0.09971	–	0.9527 ± 0.024
[2], c1 = 0.1994	–	1.016 ± 0.025
[2], c1 = 0.2989	–	1.083 ± 0.027
[2], c1 = 0.3983	–	1.155 ± 0.028
[2], c1 = 0.4976	–	1.234 ± 0.03

[Cl-].[Na+] [sodium chloride] + O
[1]
Conditions	mass density [kg/m3]
m1 = 0.04999	999.11 ± 0.27
m1 = 0.09999	1001.16 ± 0.27
m1 = 0.1999	1005.2 ± 0.28
m1 = 0.2999	1009.2 ± 0.29
m1 = 0.4002	1013.17 ± 0.3

O=S(=O)([O-])[O-].[Na+].[Na+] [sodium sulfate] + O
[1]
Conditions	mass density [kg/m3]
m1 = 0.09205	1008.69 ± 0.29
m1 = 0.2001	1021.99 ± 0.33
m1 = 0.3	1034.01 ± 0.37
m1 = 0.3999	1045.81 ± 0.42
m1 = 0.5001	1057.44 ± 0.46
